Measured values from patent publication US20080262080A1, “Allergy Suppressive Agent” (KYUSHU UNIVERSITY, NATIONAL UNIVERSITY CORPORATION, priority 2004, published 2008).

Columns and labels:
[1] = test system: germline IgE heavy chain transcription (εGT); assay: Suppression of IL-4-induced germline IgE heavy chain transcript (εGT) expression in DND39 cells (RT-PCR, blot); assay type: cell-based, human; settings: IL-4 (25 U/ml), chrysin at various concentrations, 48 hours
Experimental: IL-4 (25 U/ml) and chrysin at various concentrations were added to human mature B cell line DND39 cells and then the cells were incubated for 48 hours. mRNA was collected from the cells and cDNA was synthesized. An RT-PCR amplification product was electrophoresed on an agarose gel and transferred onto a membrane and εGT was thus detected. GAPDH (glyceraldehyde-3-phosphate dehydrogenase) was employed as a control. For each concentration or the control, the blot in the right side indicates the result in a 1/10 amount.
As described above, the inhibition of the εGT expression brings about fundamental suppression of IgE production. It is known that human mature B cell line DND39 expresses εGT in response to a stimulus by IL-4. Thus, DND39 cells were incubated in the presence of IL-4 and chrysin and the effect of chrysin on the εGT expression was examined.
Human mature B cell line DND39 was subcultured in a RPMI 1640 medium (Nissui), to which 5% of FBS (Intergen) had been added, at 37° C. and 5% CO2 vapor saturation and maintained therein. […]
The density of DND39 cells was adjusted to 2×10^5 cells/mL and incubated in the presence of IL-4 (25 U/mL) and chrysin at each concentration. […] Then, the RNA concentration was measured using a spectrophotometer Ultrospec 3000 (Pharmacia Biotech, Piscatway, N.J.). […]

[2] = test system: STAT6; assay: Chrysin intake test: STAT6 phosphorylation in spleen lymphocytes of orally dosed mice; assay type: in vivo, mouse
Experimental: Spleen lymphocytes collected from mice, to which chrysin had been orally administered continuously, were stimulated with LPS or LPS+IL-4 (500 U/ml) and phosphorylated STAT6 was detected by immunoprecipitation using anti-STAT6 antibody and immunoblotting. 200 μL portions of 0.4 mg/mL chrysin and 200 μL portions of 1% DMSO in 1% EtOH were administered respectively to groups (n=8) in accordance with the following administration schedule. To male C57BL/6N mice aged 5 weeks that had been preliminarily fed (MF feed) for 1 week, the samples were administered once every 2 days for 2 weeks (7 times in total; total dose: 0.56 mg (28 mg/kg) per animal). After sacrificing, spleen lymphocytes were collected from the spleen of each mouse, adjusted to a density of 2×10^7 cells/mL and stimulated with 25 μg/mL of lipopolysaccharide (LPS) or LPS+IL-4 (500 U/mL) for 30 min. Then, the cells were lysed and phosphorylated STAT6 was detected by immunoprecipitation with the use of anti-STAT6 antibody and immunoblotting to thereby examine the response to IL-4.

O=c1cc(-c2ccccc2)oc2cc(O)cc(O)c12 [Chrysin, 5,7-dihydroxyflavone]
εGT expression [1]: concentration-dependently suppressed | phosphorylation of STAT6 by the stimulus with LPS+IL-4 ([2]; C57BL/6N mice, oral chrysin once every 2 days for 2 weeks, total 28 mg/kg, spleen lymphocytes, LPS+IL-4 (500 U/mL) 30 min, vs control system): suppressed | oral dose at which chrysin is efficacious as an antiallergic agent ([2]; male adults having an average body weight of 60 kg (28 mg/kg)): ≥ 1.68 g/day
